From PubChem BioAssay (NCI)
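Where inhibition never reached the appropriate level, the endpoint shown equals the highest concentration tested. Otherwise, values were interpolated linearly from a five-concentration, 48-hour dose response in 96-well plates. At the GI50, growth is halved. TGI denotes the concentration required for complete inhibition of growth.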

Key:
Experiment in all cases: growth of human tumour cells (NCI), 48 h
TK-10 renal = system: TK-10 renal
HL-60(TB) leukemia = system: HL-60(TB) leukemia
SW-620 colon = system: SW-620 colon
SK-OV-3 ovarian = system: SK-OV-3 ovarian
NCI-H522 lung = system: NCI-H522 lung
MDA-MB-231 breast = system: MDA-MB-231 breast
SN12C renal = system: SN12C renal
OVCAR-3 ovarian = system: OVCAR-3 ovarian
U251 CNS = system: U251 CNS
HCT-116 colon = system: HCT-116 colon
RXF 393 renal = system: RXF 393 renal
ACHN renal = system: ACHN renal
HS 578T breast = system: HS 578T breast
HCT-15 colon = system: HCT-15 colon
OVCAR-4 ovarian = system: OVCAR-4 ovarian
A549 NSCLC = system: A549 NSCLC
SF-539 CNS = system: SF-539 CNS
NCI-H460 lung = system: NCI-H460 lung
786-0 renal = system: 786-0 renal
MCF7 breast = system: MCF7 breast
LOX IMVI melanoma = system: LOX IMVI melanoma
UACC-62 melanoma = system: UACC-62 melanoma
T-47D breast = system: T-47D breast
OVCAR-5 ovarian = system: OVCAR-5 ovarian
BT-549 breast = system: BT-549 breast
SR leukemia = system: SR leukemia
SNB-75 CNS = system: SNB-75 CNS
MDA-MB-435 = system: MDA-MB-435
SK-MEL-2 melanoma = system: SK-MEL-2 melanoma

In the case of `Cn1c(=O)n(CCCO)c(=O)c2c1nc(Oc1cccc(OC(F)(F)F)c1)n2Cc1ccc(Cl)cc1`, the GI50 (TK-10 renal) was 14.7 µM, the TGI (TK-10 renal) was 30.1 µM and the GI50 (HL-60(TB) leukemia) was 5.78 µM. It also gave a TGI (HL-60(TB) leukemia) of 22.9 µM, a GI50 (SW-620 colon) of 13.1 µM and a TGI (SW-620 colon) of 31.2 µM. The GI50 (SK-OV-3 ovarian) was 18.1 µM, the TGI (SK-OV-3 ovarian) was 34 µM and the GI50 (NCI-H522 lung) was 6.06 µM. The TGI (NCI-H522 lung) was 23.2 µM, the GI50 (MDA-MB-231 breast) was 14.6 µM and the TGI (MDA-MB-231 breast) was 32.1 µM. It also gave a GI50 (SN12C renal) of 13 µM, a TGI (SN12C renal) of 29.8 µM and a GI50 (OVCAR-3 ovarian) of 11.4 µM. It also gave a TGI (OVCAR-3 ovarian) of 25.2 µM, a GI50 (U251 CNS) of 12.5 µM and a TGI (U251 CNS) of 29.8 µM. It also gave a GI50 (HCT-116 colon) of 5.46 µM, a TGI (HCT-116 colon) of 19.6 µM and a GI50 (RXF 393 renal) of 11.2 µM. It also gave a TGI (RXF 393 renal) of 27.3 µM, a GI50 (ACHN renal) of 10.7 µM and a TGI (ACHN renal) of 23.4 µM. It also gave a GI50 (HS 578T breast) of 16.3 µM, a TGI (HS 578T breast) of 43.4 µM and a GI50 (HCT-15 colon) of 10.2 µM. The TGI (HCT-15 colon) was 28.7 µM, the GI50 (OVCAR-4 ovarian) was 13.2 µM and the TGI (OVCAR-4 ovarian) was 30.4 µM. The GI50 (A549 NSCLC) was 11.2 µM, the TGI (A549 NSCLC) was 25.5 µM and the GI50 (SF-539 CNS) was 12.9 µM. The TGI (SF-539 CNS) was 26.9 µM, the GI50 (NCI-H460 lung) was 8.5 µM and the TGI (NCI-H460 lung) was 23.9 µM. The GI50 (786-0 renal) was 12.5 µM, the TGI (786-0 renal) was 27.4 µM and the GI50 (MCF7 breast) was 4.77 µM. For the same compound, the TGI (MCF7 breast) was 22.2 µM, the GI50 (LOX IMVI melanoma) was 12 µM and the TGI (LOX IMVI melanoma) was 28.8 µM. For the same compound, the GI50 (UACC-62 melanoma) was 13.2 µM, the TGI (UACC-62 melanoma) was 29.1 µM and the GI50 (T-47D breast) was 3.78 µM. The TGI (T-47D breast) was 21 µM, the GI50 (OVCAR-5 ovarian) was 13.1 µM and the TGI (OVCAR-5 ovarian) was 26.3 µM. For the same compound, the GI50 (BT-549 breast) was 12.9 µM, the TGI (BT-549 breast) was 26.4 µM and the GI50 (SR leukemia) was 3.79 µM. The TGI (SR leukemia) was 18.2 µM, the GI50 (SNB-75 CNS) was 11.8 µM and the TGI (SNB-75 CNS) was 26.7 µM. The GI50 (MDA-MB-435) was 11.8 µM, the TGI (MDA-MB-435) was 27.2 µM and the GI50 (SK-MEL-2 melanoma) was 14.7 µM. The TGI (SK-MEL-2 melanoma) was 32.6 µM.
